Laboratory results from ChEMBL document CHEMBL1156804, “Potent inhibitors of furin and furin-like proprotein convertases containing decarboxylated P1 arginine mimetics” (J Med Chem, 2010).
Residues, ends and D or L forms follow the SMILES beside them. *: point of attachment. Agmatine = N=C(N)NCCCCN*; PhAc = O=C(Cc1ccccc1)*

Columns and labels:
Furin = Furin (Homo sapiens, UniProt P09958)
cells = type: cell-based; conditions: Canis lupus familiaris, MDCK
Plasminogen = Plasminogen (Homo sapiens, UniProt P00747); assay: Inhibition of plasmin
Sequence of Plasminogen (P00747 97-580 limits assumed): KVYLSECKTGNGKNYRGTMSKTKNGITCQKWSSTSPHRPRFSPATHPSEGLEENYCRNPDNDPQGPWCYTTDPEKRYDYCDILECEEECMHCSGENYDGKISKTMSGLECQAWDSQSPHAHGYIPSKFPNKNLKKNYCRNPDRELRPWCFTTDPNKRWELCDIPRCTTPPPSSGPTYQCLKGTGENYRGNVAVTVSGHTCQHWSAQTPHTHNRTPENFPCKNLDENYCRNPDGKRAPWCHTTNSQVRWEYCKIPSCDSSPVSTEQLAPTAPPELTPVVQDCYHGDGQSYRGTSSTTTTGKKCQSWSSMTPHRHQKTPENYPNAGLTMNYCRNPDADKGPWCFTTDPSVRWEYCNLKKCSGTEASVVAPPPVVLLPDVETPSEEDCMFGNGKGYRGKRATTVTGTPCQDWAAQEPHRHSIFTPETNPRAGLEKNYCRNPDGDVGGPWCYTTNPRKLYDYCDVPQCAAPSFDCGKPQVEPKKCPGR
Sequence of Plasminogen (P00747 581-810 limits assumed): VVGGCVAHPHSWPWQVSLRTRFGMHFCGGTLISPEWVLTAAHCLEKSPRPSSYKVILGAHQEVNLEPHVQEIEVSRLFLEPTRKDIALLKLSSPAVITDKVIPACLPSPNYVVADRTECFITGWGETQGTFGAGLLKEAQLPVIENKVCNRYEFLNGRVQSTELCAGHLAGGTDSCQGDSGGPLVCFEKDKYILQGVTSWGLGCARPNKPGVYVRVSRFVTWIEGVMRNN

[1] = biological target: T1, Proprotein convertase subtilisin/kexin type 6 (Homo sapiens, UniProt P29122); assay: Inhibition of human PACE4 expressed in Drosophila schneider 2 cells by fluorescence assay; type: cell-based
T1 sequence (P29122 whole entry): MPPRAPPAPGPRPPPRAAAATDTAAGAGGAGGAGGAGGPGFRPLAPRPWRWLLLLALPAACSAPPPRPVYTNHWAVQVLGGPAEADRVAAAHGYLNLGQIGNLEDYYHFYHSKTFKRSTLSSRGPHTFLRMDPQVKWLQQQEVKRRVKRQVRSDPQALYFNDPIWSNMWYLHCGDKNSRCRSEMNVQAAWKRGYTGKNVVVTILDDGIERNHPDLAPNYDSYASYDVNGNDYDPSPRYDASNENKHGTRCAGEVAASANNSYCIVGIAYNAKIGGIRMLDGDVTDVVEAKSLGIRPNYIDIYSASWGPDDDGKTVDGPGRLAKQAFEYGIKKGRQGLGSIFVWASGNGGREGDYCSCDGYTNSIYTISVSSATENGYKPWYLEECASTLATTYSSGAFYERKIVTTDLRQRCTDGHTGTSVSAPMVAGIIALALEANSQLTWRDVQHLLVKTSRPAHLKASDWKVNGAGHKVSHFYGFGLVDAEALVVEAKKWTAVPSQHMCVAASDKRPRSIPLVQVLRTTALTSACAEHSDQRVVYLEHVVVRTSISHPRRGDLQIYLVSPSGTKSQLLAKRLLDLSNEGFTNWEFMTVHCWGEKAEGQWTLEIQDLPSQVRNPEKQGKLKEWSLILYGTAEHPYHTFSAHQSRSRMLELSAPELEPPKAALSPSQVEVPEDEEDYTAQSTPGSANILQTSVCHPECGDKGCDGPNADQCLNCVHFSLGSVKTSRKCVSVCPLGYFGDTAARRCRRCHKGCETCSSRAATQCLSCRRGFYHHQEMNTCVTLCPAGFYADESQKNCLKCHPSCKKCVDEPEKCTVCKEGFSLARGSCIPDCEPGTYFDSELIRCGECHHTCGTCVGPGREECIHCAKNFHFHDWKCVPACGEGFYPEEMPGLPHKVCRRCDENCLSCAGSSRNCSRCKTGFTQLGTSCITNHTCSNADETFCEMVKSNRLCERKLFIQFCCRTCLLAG

[2] = biological target: T2, Neuroendocrine convertase 2 (Homo sapiens, UniProt P16519); assay: Inhibition of human PC2 expressed in Drosophila schneider 2 cells by fluorescence assay; type: cell-based
T2 sequence (P16519 whole entry): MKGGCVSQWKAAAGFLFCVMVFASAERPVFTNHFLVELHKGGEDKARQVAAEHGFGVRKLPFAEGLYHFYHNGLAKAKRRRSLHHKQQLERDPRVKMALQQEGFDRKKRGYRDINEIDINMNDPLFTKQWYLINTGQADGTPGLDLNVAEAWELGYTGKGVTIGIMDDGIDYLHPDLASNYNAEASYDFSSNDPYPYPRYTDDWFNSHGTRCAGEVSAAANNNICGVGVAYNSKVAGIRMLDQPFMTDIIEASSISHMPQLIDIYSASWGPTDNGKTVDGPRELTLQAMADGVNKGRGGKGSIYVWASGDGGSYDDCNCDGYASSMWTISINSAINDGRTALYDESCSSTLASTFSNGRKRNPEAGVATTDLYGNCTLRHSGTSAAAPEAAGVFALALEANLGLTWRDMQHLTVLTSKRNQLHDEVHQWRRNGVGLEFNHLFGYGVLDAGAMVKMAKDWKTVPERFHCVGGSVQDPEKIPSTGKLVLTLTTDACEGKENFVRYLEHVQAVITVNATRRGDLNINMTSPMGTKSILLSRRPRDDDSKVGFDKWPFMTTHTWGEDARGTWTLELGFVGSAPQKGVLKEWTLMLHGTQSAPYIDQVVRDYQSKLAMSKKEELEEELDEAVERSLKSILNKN

[3] = biological target: T3, Neuroendocrine convertase 1 (Homo sapiens, UniProt P29120); assay: Inhibition of human PC1/3 expressed in Drosophila schneider 2 cells by fluorescence assay; type: cell-based
T3 sequence (P29120 whole entry): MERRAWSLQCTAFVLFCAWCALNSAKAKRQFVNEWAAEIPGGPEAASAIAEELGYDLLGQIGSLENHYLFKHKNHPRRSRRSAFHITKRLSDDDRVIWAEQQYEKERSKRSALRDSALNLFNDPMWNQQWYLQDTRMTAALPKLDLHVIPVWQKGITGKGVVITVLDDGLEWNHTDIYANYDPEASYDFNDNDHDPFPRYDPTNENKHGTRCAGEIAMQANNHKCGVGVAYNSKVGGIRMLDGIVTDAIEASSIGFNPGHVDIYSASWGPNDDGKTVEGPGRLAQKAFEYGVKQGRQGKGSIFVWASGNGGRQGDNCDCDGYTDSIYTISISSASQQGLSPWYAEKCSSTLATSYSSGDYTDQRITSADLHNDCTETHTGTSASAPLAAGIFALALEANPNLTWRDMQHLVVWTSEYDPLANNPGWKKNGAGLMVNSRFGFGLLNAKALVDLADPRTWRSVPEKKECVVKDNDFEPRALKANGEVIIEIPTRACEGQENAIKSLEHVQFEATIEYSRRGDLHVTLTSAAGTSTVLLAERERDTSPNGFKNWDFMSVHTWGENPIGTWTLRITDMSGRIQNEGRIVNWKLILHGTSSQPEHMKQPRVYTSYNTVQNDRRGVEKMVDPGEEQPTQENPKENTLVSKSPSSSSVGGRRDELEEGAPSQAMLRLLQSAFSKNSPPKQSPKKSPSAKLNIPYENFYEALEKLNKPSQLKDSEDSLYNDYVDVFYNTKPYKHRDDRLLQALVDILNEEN

Coagulation factor X = Coagulation factor X (Homo sapiens, UniProt P00742); assay: Inhibition of factor 10a
Sequence of Coagulation factor X (P00742 41-179 limits assumed): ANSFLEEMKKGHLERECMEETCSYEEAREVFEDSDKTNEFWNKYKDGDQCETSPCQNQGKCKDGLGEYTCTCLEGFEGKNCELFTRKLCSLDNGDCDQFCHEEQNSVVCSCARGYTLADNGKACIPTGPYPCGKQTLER
Sequence of Coagulation factor X (P00742 235-488 limits assumed): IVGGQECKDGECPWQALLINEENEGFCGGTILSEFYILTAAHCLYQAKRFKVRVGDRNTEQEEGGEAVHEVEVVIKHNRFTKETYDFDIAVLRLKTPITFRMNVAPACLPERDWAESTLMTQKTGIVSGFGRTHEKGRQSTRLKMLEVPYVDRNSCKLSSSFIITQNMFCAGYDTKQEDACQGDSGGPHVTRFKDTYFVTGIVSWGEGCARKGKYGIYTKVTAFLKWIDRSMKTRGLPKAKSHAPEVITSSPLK

[4] = biological target: T4, Proprotein convertase subtilisin/kexin type 7 (Homo sapiens, UniProt Q16549); assay: Inhibition of human PC7 expressed in Drosophila schneider 2 cells by fluorescence assay; type: cell-based
T4 sequence (Q16549 whole entry): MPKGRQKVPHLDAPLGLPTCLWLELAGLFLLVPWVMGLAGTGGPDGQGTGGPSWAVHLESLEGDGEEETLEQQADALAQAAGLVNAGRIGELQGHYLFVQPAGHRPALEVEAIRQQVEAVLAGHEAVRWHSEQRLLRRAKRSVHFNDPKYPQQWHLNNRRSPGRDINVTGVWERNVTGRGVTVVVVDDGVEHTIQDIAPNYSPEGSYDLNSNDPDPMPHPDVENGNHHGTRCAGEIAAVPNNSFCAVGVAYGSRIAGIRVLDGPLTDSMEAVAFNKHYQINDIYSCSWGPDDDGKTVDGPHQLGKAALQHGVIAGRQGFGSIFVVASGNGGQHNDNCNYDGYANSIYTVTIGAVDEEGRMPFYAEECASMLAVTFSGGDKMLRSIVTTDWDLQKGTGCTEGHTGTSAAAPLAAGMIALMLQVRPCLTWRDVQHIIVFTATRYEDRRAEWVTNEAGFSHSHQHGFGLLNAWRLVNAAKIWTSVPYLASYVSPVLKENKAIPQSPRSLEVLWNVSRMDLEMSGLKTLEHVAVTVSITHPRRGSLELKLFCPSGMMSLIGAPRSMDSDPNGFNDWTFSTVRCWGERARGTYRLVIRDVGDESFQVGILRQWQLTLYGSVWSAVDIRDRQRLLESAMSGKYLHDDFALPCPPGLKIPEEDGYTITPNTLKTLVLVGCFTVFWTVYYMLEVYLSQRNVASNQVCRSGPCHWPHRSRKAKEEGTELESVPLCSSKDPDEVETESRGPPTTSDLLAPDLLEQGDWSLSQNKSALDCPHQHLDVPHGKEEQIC

Prothrombin = Prothrombin (Homo sapiens, UniProt P00734); assay: Inhibition of thrombin
[5] = biological target: Proprotein convertase subtilisin/kexin type 5 (Homo sapiens, UniProt Q92824); assay: Inhibition of human PC5/6 expressed in Drosophila schneider 2 cells by fluorescence assay; type: cell-based
Sequence of Proprotein convertase subtilisin/kexin type 5 (Q92824 whole entry): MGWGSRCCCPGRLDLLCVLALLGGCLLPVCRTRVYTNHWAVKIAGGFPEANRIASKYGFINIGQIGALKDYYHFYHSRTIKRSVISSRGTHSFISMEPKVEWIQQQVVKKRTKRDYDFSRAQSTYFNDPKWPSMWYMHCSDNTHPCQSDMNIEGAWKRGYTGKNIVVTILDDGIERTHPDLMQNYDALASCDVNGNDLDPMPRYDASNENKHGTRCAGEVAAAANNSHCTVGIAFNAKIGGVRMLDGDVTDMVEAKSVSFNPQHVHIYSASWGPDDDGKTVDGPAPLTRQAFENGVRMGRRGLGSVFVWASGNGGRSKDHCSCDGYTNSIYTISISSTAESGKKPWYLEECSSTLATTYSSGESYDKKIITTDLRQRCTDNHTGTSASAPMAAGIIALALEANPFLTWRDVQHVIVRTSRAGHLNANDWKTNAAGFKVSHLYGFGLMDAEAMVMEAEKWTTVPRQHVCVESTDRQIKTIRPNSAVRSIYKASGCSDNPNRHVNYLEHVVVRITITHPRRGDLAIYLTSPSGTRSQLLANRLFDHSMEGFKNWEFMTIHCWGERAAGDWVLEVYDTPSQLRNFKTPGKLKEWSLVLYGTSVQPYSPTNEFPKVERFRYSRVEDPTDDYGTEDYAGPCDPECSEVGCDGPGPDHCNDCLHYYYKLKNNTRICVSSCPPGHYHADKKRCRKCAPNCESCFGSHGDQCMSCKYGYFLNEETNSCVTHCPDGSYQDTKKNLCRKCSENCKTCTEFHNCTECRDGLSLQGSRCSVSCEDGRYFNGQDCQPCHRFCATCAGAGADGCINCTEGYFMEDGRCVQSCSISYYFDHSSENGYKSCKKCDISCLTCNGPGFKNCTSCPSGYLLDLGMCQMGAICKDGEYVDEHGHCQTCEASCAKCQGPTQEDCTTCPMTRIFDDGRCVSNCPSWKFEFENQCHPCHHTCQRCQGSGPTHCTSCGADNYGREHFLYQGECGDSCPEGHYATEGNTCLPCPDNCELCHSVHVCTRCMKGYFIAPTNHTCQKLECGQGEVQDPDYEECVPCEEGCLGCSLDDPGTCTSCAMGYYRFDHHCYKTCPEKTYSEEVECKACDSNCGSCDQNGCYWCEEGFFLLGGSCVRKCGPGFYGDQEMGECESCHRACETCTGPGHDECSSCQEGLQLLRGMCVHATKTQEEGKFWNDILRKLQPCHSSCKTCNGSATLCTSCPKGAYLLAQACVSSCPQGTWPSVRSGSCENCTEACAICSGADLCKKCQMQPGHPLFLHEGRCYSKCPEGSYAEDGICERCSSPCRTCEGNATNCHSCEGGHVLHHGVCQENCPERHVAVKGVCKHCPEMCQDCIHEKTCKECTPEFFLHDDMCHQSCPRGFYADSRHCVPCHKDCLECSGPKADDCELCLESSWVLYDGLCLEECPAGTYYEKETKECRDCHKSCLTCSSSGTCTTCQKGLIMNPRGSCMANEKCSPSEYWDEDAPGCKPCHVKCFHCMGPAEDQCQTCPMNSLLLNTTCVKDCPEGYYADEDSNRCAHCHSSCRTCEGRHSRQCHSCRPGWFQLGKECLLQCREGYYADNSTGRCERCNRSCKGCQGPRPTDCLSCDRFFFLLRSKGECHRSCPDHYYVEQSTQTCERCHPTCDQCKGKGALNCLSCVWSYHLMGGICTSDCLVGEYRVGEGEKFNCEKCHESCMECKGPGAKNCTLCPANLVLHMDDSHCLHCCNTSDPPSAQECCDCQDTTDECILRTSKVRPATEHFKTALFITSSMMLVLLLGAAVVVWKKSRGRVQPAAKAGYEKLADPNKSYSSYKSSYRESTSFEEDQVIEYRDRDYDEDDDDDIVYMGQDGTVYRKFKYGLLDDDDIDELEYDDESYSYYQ

Sequence of Furin (P09958 whole entry): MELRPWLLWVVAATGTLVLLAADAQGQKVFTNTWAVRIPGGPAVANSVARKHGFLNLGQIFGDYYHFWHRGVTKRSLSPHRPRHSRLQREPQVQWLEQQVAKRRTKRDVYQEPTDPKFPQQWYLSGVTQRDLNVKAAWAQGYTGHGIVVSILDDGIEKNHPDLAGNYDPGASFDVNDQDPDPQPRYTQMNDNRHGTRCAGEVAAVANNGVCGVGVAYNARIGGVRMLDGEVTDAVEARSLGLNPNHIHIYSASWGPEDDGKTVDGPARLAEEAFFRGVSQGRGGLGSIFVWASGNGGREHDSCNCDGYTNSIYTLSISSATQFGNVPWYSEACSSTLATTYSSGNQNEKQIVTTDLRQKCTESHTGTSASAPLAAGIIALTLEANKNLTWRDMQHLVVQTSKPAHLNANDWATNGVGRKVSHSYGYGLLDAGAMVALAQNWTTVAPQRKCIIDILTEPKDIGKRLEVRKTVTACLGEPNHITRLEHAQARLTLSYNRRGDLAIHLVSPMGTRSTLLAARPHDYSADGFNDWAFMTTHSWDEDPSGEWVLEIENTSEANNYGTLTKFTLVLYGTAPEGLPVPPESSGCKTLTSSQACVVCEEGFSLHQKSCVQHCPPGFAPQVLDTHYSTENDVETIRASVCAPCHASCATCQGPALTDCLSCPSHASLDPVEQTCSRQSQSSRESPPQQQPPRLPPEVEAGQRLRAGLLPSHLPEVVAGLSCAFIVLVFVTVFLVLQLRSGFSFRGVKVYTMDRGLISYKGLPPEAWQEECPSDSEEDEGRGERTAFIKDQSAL

SMILES	Ki (Furin)	Ki [1]	Ki [2]	Ki [3]	Ki [4]	Ki [5]	further results
CCCCCCCCCC(=O)N[C@@H](CCCN=C(N)N)C(=O)N[C@H](C(=O)N[C@@H](CCCCN)C(=O)NCc1ccc(C(=N)N)cc1)C(C)C	0.0033 µM	–	–	–	–	–	–
CC(C)[C@H](NC(=O)[C@H](CCCNC(=N)N)NC(=O)Cc1ccccc1)C(=O)N[C@@H](CCCNC(=N)N)C(=O)NCc1ccc(C(=N)N)cc1	–	0.0006 µM	0.312 µM	0.00075 µM	6.15 µM	0.0016 µM	IC50 (cells): 10 µM; Ki (Plasminogen): 6 µM; Ki (Coagulation factor X): 40 µM; Ki (Prothrombin): 23 µM
CC(C)[C@H](NC(=O)[C@H](CCCN=C(N)N)NC(=O)Cc1ccccc1)C(=O)N[C@@H](CCCN=C(N)N)C(=O)NCc1cccc(CN=C(N)N)c1	2.73 µM	–	–	–	–	–	–
CC(C)[C@H](NC(=O)[C@H](CCCN=C(N)N)NC(=O)Cc1ccccc1)C(=O)N[C@@H](CCCN=C(N)N)C(=O)NCc1ccc(CN=C(N)N)cc1	1.43 µM	–	–	–	–	–	–
CC(C)[C@H](NC(=O)[C@H](CCCNC(=N)N)NC(=O)Cc1ccccc1)C(=O)N[C@@H](CCCNC(=N)N)C(=O)NCC1CCN(C(=N)N)CC1	0.053 µM	0.067 µM	> 10 µM	0.07 µM	> 10 µM	0.173 µM	Ki (Plasminogen): > 1000 µM; Ki (Coagulation factor X): 123 µM; Ki (Prothrombin): 50 µM
CC(C)[C@H](NC(=O)[C@H](CCCN=C(N)N)NC(=O)Cc1ccccc1)C(=O)N[C@@H](CCCN=C(N)N)C(=O)NCc1cccc(CN)c1	1.32 µM	–	–	–	–	–	–
CCCCCCCCCC(=O)N[C@@H](CCCN=C(N)N)C(=O)N[C@H](C(=O)N[C@@H](CCCN=C(N)N)C(=O)NCc1ccc(C(=N)N)cc1)C(C)C	0.0016 µM	0.003 µM	0.055 µM	0.00365 µM	0.968 µM	0.0063 µM	–
CC(C)[C@H](NC(=O)[C@H](CCCNC(=N)N)NC(=O)Cc1ccccc1)C(=O)N[C@@H](CCCNC(=N)N)C(=O)NCCCCCN	0.553 µM	–	–	–	–	–	–
CC(C)[C@H](NC(=O)[C@H](CCCN=C(N)N)NC(=O)Cc1ccccc1)C(=O)N[C@@H](CCCN=C(N)N)C(=O)NCCCN=C(N)N	0.063 µM	–	–	–	–	–	–
CC(C)[C@H](NC(=O)[C@H](CCCN=C(N)N)NC(=O)Cc1ccccc1)C(=O)N[C@@H](CCCN=C(N)N)C(=O)NCCCCN	7.49 µM	–	–	–	–	–	–
CC(C)[C@H](NC(=O)[C@H](CCCN=C(N)N)NC(=O)Cc1ccccc1)C(=O)N[C@@H](CCCN=C(N)N)C(=O)NCCCCCN=C(N)N	1.07 µM	–	–	–	–	–	–
CC(C)[C@H](NC(=O)[C@H](CCCN=C(N)N)NC(=O)Cc1ccccc1)C(=O)N[C@@H](CCCN=C(N)N)C(=O)NCC1CCNCC1	9.71 µM	–	–	–	–	–	–
CC(=O)N[C@@H](CCCNC(=N)N)C(=O)N[C@H](C(=O)N[C@@H](CCCNC(=N)N)C(=O)NCc1ccc(C(=N)N)cc1)C(C)C	0.001 µM	0.0024 µM	1.39 µM	0.0017 µM	5.13 µM	0.0036 µM	–
CC(C)[C@H](NC(=O)[C@H](CCCNC(=N)N)NC(=O)Cc1ccccc1)C(=O)N[C@@H](CCCNC(=N)N)C(=O)NCCCN	3.02 µM	–	–	–	–	–	–
CC(C)[C@H](NC(=O)[C@H](CCCNC(=N)N)NC(=O)Cc1ccccc1)C(=O)N[C@@H](CCCNC(=N)N)C(=O)NCc1ccc(CN)cc1	0.627 µM	–	–	–	–	–	–
CC(C)[C@H](NC(=O)[C@H](CCCNC(=N)N)NC(=O)Cc1ccccc1)C(=O)N[C@@H](CCCNC(=N)N)C(=O)NCCCCNC(=N)N (PhAc-Arg-Val-Arg-Agmatine)	0.078 µM	0.042 µM	> 10 µM	0.053 µM	> 10 µM	0.085 µM	Ki (Plasminogen): 97 µM; Ki (Coagulation factor X): 83 µM; Ki (Prothrombin): 102 µM
